Test results as given in US8835476B2, “Synthesis of novel antimicrobials” (priority 2005, dated 2014).
Values after ≈ are worked out from the molar mass of the structure shown.

Experiments:
Assay type in all cases: cell-based
A. anitratus ATCC 19606 = assay: Broth microdilution MIC, ATCC strains; conditions: Acinetobacter calcoaceticus, ATCC19606; A. anitratus ATCC 19606; read-out: MIC (growth inhibition, microdilution method)
Excerpt: (§1) All clinical isolates tested were from The North American Urinary Tract Infection Collaborative Alliance (NAUTICA) which is a UTI surveillance study involving 40 medical centres (30 from the US and 10 from Canada). Each centre submitted up to 50 consecutive outpatient midstream urine isolates. All isolates were deemed significant urinary tract pathogens by individual laboratory criteria and identified to the species level by each laboratory's existing protocol. Isolates were transported to the coordinating laboratory (Health Sciences Centre, Winnipeg, Canada) on charcoal swabs. Only one isolate per patient was accepted. Upon receipt, isolates were cultured by the coordinating laboratory, stocked in skim milk, and stored at −80° C. awaiting reference antibiotic susceptibility testing. Elementary demographic information was also compiled for each isolate. Isolates were selected randomly from the above pool to represent 18 different species of Enterobacteriaceae and non-Enterobacteriaceae. An average of 5 strains of each species were tested for a total of 93 organisms. In addition, 23 reference (ATCC) [both gram negative and gram positive] strains were tested.
(§2) Susceptibilities to the compounds were determined using the National Committee for Clinical Laboratory Standards (NCCLS) M7-A6 broth microdilution method. […] DMSO controls were incorporated into the panel to mimic the quantity of DMSO used in dissolving some of the compounds at the higher concentrations. Each final panel well volume was 100 μl with a bacterial inoculum of 5×10^5 colony forming units (CFU)/ml. Panels were read following 16 to 20 hours of incubation at 35° C. in ambient air. The minimum inhibitory concentration (MIC) was defined as the lowest concentration of antimicrobial inhibiting visible growth. Quality control (QC) was performed using four ATCC QC organisms that were run with every batch set up to insure reproducibility.

E. aerogenes ATCC 13048 = assay: Broth microdilution MIC, ATCC strains; conditions: Klebsiella aerogenes, ATCC13048; E. aerogenes ATCC 13048; read-out: MIC (growth inhibition, microdilution method)
Excerpt: as §1, §2

E. cloacae ATCC 23355 = assay: Broth microdilution MIC, ATCC strains; conditions: Enterobacter cloacae, ATCC23355; E. cloacae ATCC 23355; read-out: MIC (growth inhibition, microdilution method)
Excerpt: as §1, §2

K. pneumoniae ATCC 13883 = assay: Broth microdilution MIC, ATCC strains; conditions: Klebsiella pneumoniae, ATCC13883; K. pneumoniae ATCC 13883; read-out: MIC (growth inhibition, microdilution method)
Excerpt: as §1, §2

P. mirabilis ATCC 29245 = assay: Broth microdilution MIC, ATCC strains; conditions: Proteus mirabilis, ATCC29245; P. mirabilis ATCC 29245; read-out: MIC (growth inhibition, microdilution method)
Excerpt: as §1, §2

S. aureus ATCC 29213 = assay: Broth microdilution MIC, ATCC strains; conditions: for MIC: Staphylococcus aureus, ATCC29213, S. aureus ATCC 29213, read-out: MIC (growth inhibition, microdilution method)
Excerpt: as §1, §2

[1] = test system: S. epidermidis ATCC 14990; assay: Broth microdilution MIC, ATCC strains; conditions: Staphylococcus epidermidis, ATCC14990; S. epidermidis ATCC 14990; read-out: MIC (growth inhibition, microdilution method)
Excerpt: as §1, §2

[2] = test system: S. maltophilia ATCC 13637; assay: Broth microdilution MIC, ATCC strains; conditions: Stenotrophomonas maltophilia, ATCC13637; S. maltophilia ATCC 13637; read-out: MIC (growth inhibition, microdilution method)
Excerpt: as §1, §2

[3] = test system: S. saprophyticus ATCC 15305; assay: Broth microdilution MIC, ATCC strains; conditions: Staphylococcus saprophyticus, ATCC15305; S. saprophyticus ATCC 15305; read-out: MIC (growth inhibition, microdilution method)
Excerpt: as §1, §2

S. simulans ATCC 27848 = assay: Broth microdilution MIC, ATCC strains; conditions: Staphylococcus simulans, ATCC27848, read-out: MIC (growth inhibition, microdilution method)
Excerpt: as §1, §2

S. warneri ATCC 27836 = assay: Broth microdilution MIC, ATCC strains; conditions: Staphylococcus warneri, ATCC27836; S. warneri ATCC 27836; read-out: MIC (growth inhibition, microdilution method)
Excerpt: as §1, §2

P. rettgeri CAP = assay: Broth microdilution MIC, reference strains; conditions: Providencia rettgeri; P. rettgeri (CAP in Table 1); read-out: MIC (growth inhibition, microdilution method)
Excerpt: as §1, §2

[4] = test system: A. baumanii clinical isolates; assay: Broth microdilution MIC, clinical isolate strains (NAUTICA); conditions: clinical isolates, one table line per isolate; unit assumed
Excerpt: as §1, §2

[5] = test system: B. cepacia clinical isolates; assay: as above; conditions: clinical isolates, one table line per isolate; unit assumed
Excerpt: as §1, §2

[6] = test system: C. amalonaticus clinical isolates; assay: as above; conditions: clinical isolates, one table line per isolate; unit assumed
Excerpt: as §1, §2

[7] = test system: C. freundii clinical isolates; assay: as above; conditions: clinical isolates, one table line per isolate; in µg/mL (unit assumed)
Excerpt: as §1, §2

[8] = test system: C. koseril clinical isolates; assay: as above; conditions: clinical isolates, one table line per isolate; unit assumed
Excerpt: as §1, §2

[9] = test system: E. aerogenes clinical isolates; assay: as above; conditions: clinical isolates, one table line per isolate; unit assumed
Excerpt: as §1, §2

[10] = test system: E. cloacae clinical isolates; assay: as above; conditions: clinical isolates, one table line per isolate; unit assumed
Excerpt: as §1, §2

[11] = test system: K. oxytoca clinical isolates; assay: as above; conditions: clinical isolates, one table line per isolate; unit assumed
Excerpt: as §1, §2

[12] = test system: K. pneumoniae clinical isolates; assay: as above; conditions: clinical isolates, one table line per isolate; unit assumed
Excerpt: as §1, §2

[13] = test system: M. morganii clinical isolates; assay: as above; conditions: clinical isolates, one table line per isolate; unit assumed
Excerpt: as §1, §2

[14] = test system: P. mirabilis clinical isolates; assay: as above; conditions: clinical isolates, one table line per isolate; unit assumed
Excerpt: as §1, §2

[15] = test system: P. retgerri clinical isolates; assay: as above; conditions: clinical isolates, one table line per isolate; unit assumed
Excerpt: as §1, §2

[16] = test system: P. stuartii clinical isolates; assay: as above; conditions: clinical isolates, one table line per isolate; unit assumed
Excerpt: as §1, §2

[17] = test system: S. liquifaciens clinical isolates; assay: as above; conditions: clinical isolates, one table line per isolate; unit assumed
Excerpt: as §1, §2

[18] = test system: S. maltophilia clinical isolates; assay: as above; conditions: clinical isolates, one table line per isolate; unit assumed
Excerpt: as §1, §2

[19] = test system: S. marcescens clinical isolates; assay: as above; conditions: clinical isolates, one table line per isolate; unit assumed
Excerpt: as §1, §2

[20] = test system: E. coli clinical isolates; assay: as above; conditions: clinical isolates, one table line per isolate; unit assumed
Excerpt: as §1, §2

[21] = test system: P. vulgaris clinical isolates; assay: as above; conditions: clinical isolates, one table line per isolate; unit assumed
Excerpt: as §1, §2

Structure (SMILES) | MIC (A. anitratus ATCC 19606) [µg/mL] | MIC (E. aerogenes ATCC 13048) [µg/mL] | MIC (E. cloacae ATCC 23355) [µg/mL] | MIC (K. pneumoniae ATCC 13883) [µg/mL] | MIC (P. mirabilis ATCC 29245) [µg/mL] | MIC (S. aureus ATCC 29213) [µg/mL] | MIC [1] [µg/mL] | MIC [2] [µg/mL] | MIC [3] [µg/mL] | MIC (S. simulans ATCC 27848) [µg/mL] | MIC (S. warneri ATCC 27836) [µg/mL] | MIC (P. rettgeri CAP) [µg/mL] | MIC, C. AMALONATICUS [6] [µg/mL] | MIC, C. FREUNDII [7] | MIC, C. KOSERI [8] [µg/mL] | MIC, E. AEROGENES [9] [µg/mL] | MIC, E. CLOACAE [10] [µg/mL] | MIC, K. OXYTOCA [11] [µg/mL] | MIC, K. PNEUMONIAE [12] [µg/mL] | MIC, M. MORGANII [13] [µg/mL] | also measured
O=C(O)c1cc(-c2nn[nH]n2)cs1 [DNM-116, 4-(2H-Tetrazol-5-yl)-thiophene-2-carboxylic acid] | 16 (≈ 81.6 µM) | 16 (≈ 81.6 µM) | 16 (≈ 81.6 µM) | 16 (≈ 81.6 µM) | 32 (≈ 163 µM) | 32 (≈ 163 µM) | 16 (≈ 81.6 µM) | 16 (≈ 81.6 µM) | 16 (≈ 81.6 µM) | > 32 | 32 (≈ 163 µM) | 32 (≈ 163 µM) | 16 (≈ 81.6 µM) | 16 | 16 (≈ 81.6 µM) | 16 (≈ 81.6 µM) | 16 (≈ 81.6 µM) | 16 (≈ 81.6 µM) | 16 (≈ 81.6 µM) | 16 (≈ 81.6 µM) | MIC (growth inhibition, microdilution method) (S. aureus ATCC 29213; S. aureus ATCC 29213): >32 µg/mL; MIC, A. BAUMANII [4]: 16 µg/mL (≈ 81.6 µM); MIC, B. CEPACIA [5]: 16 µg/mL (≈ 81.6 µM); MIC, P. MIRABILIS [14]: 16 µg/mL (≈ 81.6 µM); MIC, P. RETTGERI [15]: 16 µg/mL (≈ 81.6 µM); MIC, P. STUARTII [16]: 16 µg/mL (≈ 81.6 µM); MIC, S. LIQUEFACIENS [17]: 16 µg/mL (≈ 81.6 µM); MIC, S. MALTOPHILIA [18]: 16 µg/mL (≈ 81.6 µM); MIC, S. MARCESCENS [19]: 16 µg/mL (≈ 81.6 µM)
Cn1nnc(-c2cc(C(=O)O)sc2-c2ccc(F)cc2)n1 [DNM-123, 5-(4-fluorophenyl)-4-(2-methyl-2H-tetrazol-5-yl)thiophene-2-carboxylic acid] | ≤ 0.5 | 8 (≈ 26.3 µM) | 8 (≈ 26.3 µM) | 8 (≈ 26.3 µM) | > 8 | > 8 | 4 (≈ 13.1 µM) | ≤ 0.5 | > 8 | > 8 | > 8 | > 8 | – | 8 | – | – | – | – | – | – | –
CCOC(=O)c1cc(-c2nnn[nH]2)c(-c2ccc(F)cc2)s1 [DNM-124, 5-(4-Fluoro-phenyl)-4-(1H-tetrazol-5-yl)-thiophene-2-carboxylic acid ethyl ester] | 64 (≈ 201 µM) | > 64 | > 64 | > 64 | > 64 | > 64 | 64 (≈ 201 µM) | 64 (≈ 201 µM) | > 64 | > 64 | > 64 | > 64 | > 64 | >64 | > 64 | > 64 | > 64 | > 64 | > 64 | > 64 | MIC, E. COLI [20]: > 64 µg/mL; MIC, P. MIRABILIS [14]: > 64 µg/mL; MIC, P. RETTGERI [15]: > 64 µg/mL; MIC, P. VULGARIS [21]: > 64 µg/mL; MIC, S. LIQUEFACIENS [17]: > 64 µg/mL; MIC, S. MALTOPHILIA [18]: > 64 µg/mL; MIC, S. MARCESCENS [19]: > 64 µg/mL
